From patent US8956646B2, “Zwitterionic lipids” (The Regents of the University of California, priority 2010, dated 2015)
Entries after “also recorded” stand apart in the source; their conditions may differ.

Key:
[1] = literature values, cited from earlier work; for Transition Temperatures (° C.), PE: PE headgroup; for Transition Temperatures (° C.), PC: PC headgroup
[2] = ZNLP hydrodynamic diameter, zeta potential and encapsulation efficiency; type: physicochemical; details: ZNLP encapsulating siRNA
Procedure: 5-10 min after particle formation liposomes are extruded through either 50 nm or 80 nm polycarbonate membranes 7 times. Methanol can be removed by either evaporation or dialysis.
FIG. 29 is a table showing ZNLP encapsulating siRNA: hydrodynamic diameter and zeta potential: siRNA was encapsulated into ZNLP from various zwitterionic lipids.
FIG. 30 is a table showing the effect of helper lipids on size and encapsulation efficiency: Changing helper lipid and lipid composition affects size and encapsulation efficiency of ZNLP. DOBA-Q formed small lipid vesicles≦80 nm. […] All lipid formulations display negative/neutral zeta potential.

[3] = SBL liposome formation, diameter and PDI in various salts; type: physicochemical; parameters: key to Liposome diameter (nm): DNF=Did Not Form, no liposomes formed
Procedure: The five SBLs were first examined for their ability to make vesicles under standard buffer conditions (10 mM HEPES, 140 mM NaCl, pH 7.4). We observed that none of the five SBLs were able to form stable liposomes after thin film rehydration in this buffer followed by sonication at 80° C. […] To test if the SB headgroup inner salt interactions could be disrupted by an increase in salt concentration, the same liposome formation process was performed at increasing NaCl concentrations. Salts with different anions were also tested to determine if those predicted to have greater binding than Cl^− would allow for liposome formation at concentrations where NaCl was not able to. Liposome-formation results are shown in Table 4 for all five SBLs with a variety of salts and at various NaCl concentrations.
Liposome preparations were made at 26 mM lipid in 10 mM HEPES buffer, pH 7.4 with the specified salt concentration. All preparations were rehydrated and sonicated at 80° C. for 7 minutes, allowed to cool for 5 minutes and then measured.
Liposome diameters were measured both five minutes after sonication and at 24 hours. DPSB and DSSB in NaI both formed gels and could not be measured and DPSB and DSSB with KBr precipitated into particles too large and polydisperse for measurement.

[4] = Phase transition temperatures of sulfobetaine lipids (DSC); type: physicochemical; details: for inner/outer salt form (high/low transition) as function of NaCl concentration: DSC, 10 mM HEPES pH 7.4, NaCl up to 1M; for Transition Temperatures (° C.), SB Inner Salt: hypothesized inner salt form, observed high phase transition; for Transition Temperatures (° C.), SB Outer Salt: hypothesized outer salt form, observed low phase transition
Procedure: All buffers contain 10 mM HEPES, pH 7.4. Preparations were made at 26 mM SB lipid by thin film rehydration at 80° C., followed by brief 20 second bursts of sonication at 80° C. (˜2-4 times) to make dispersions of large bilayer fragments.
Based on our observations that SBL liposome formation and stability is largely dependent on salt composition and concentration we sought to determine if these effects changed the transition temperatures of the liposomes. The data in FIG. 3 clearly depicts a bi-modal phase transition behavior for the SBLs. Without salt, the majority of the SBLs are likely in one of the inner salt forms supported by the observed elevated transition temperatures.
Inner and outer salt conformations of the SBLs are hypothesized to coordinate to the observed high and low phase transitions, respectively.

[5] = Zeta/surface potential of SBL liposomes in salt solutions; type: physicochemical; details: order of anions; data not shown
Description: The vesicles formed in these three salts were all reasonably small, with those formed in KBr having, on average, a slighter larger diameter. This may be due the weaker binding of Br^− to the cationic region of the SBLs relative to I^− and ClO4^−, which would result in a higher percentage of SBLs in the inner-salt conformation.

[6] = Zeta potential of BLL containing vesicles as a function of pH; type: physicochemical; details: changing ratio of DOBAQ:DOPC
Procedure: Liposomes containing quaternary BLL remain neutral at pH>pI, while liposomes containing tertiary BLL move from neutral to anionic as pH increases above the pI due to deprotonation of the amine.
All other lipids show pH responsive behavior, with 4° BLL generally transitioning from cationic to neutral, and 3° from cationic to neutral to anionic.
Further analysis is required to fully understand this behavior.

[7] = Zeta potential of liposomes as a function of calcium concentration; type: physicochemical; details: across physiological Ca2+ concentrations
Procedure: Liposomes were prepared from either DOPC or DOCPe and their zeta potentials were measured in a Malvern zetaNano instrument as a function of the calcium concentration. Liposomes prepared from either lipid become more positively charged as the Ca^2+ concentration increases.

[8] = 0 mM NaCl, 26 mM lipid, 10 mM HEPES pH 7.4
[9] = 150 mM KBr, five minutes after sonication
[10] = 150 mM NaCl, 26 mM lipid, 10 mM HEPES pH 7.4
[11] = 150 mM NaClO4, five minutes after sonication
[12] = 150 mM NaI, five minutes after sonication
[13] = 500 mM NaCl, 26 mM lipid, 10 mM HEPES pH 7.4
[14] = 1000 mM NaCl, 26 mM lipid, 10 mM HEPES pH 7.4

Liposome diameter (nm) [3, 8] | Liposome diameter (nm) ([3]; 150 mM KBr (24 h)) | Liposome diameter (nm) [3, 9] [nm] | PDI [3, 9] | Liposome diameter (nm) [3, 10] | Liposome diameter (nm) ([3]; 150 mM NaClO4 (24 h)) | PDI ([3]; 150 mM NaClO4 (24 h)) | Liposome diameter (nm) [3, 11] [nm] | PDI [3, 11] | Liposome diameter (nm) ([3]; 150 mM NaF) | Liposome diameter (nm) ([3]; 150 mM NaI (24 h)) | Liposome diameter (nm) [3, 12] [nm] | PDI [3, 12] | Liposome diameter (nm) [3, 13] [nm] | PDI [3, 13] | Liposome diameter (nm) [3, 14] [nm] | PDI [3, 14] | SMILES | other results
DNF | 137.6 nm | 120.8 | 0.260 | DNF | 69.18 | 0.235 | 67.7 | 0.250 | DNF | 99.24 nm | 90.58 | 0.246 | 126.9 | 0.197 | 118.9 | 0.176 | CCCCCCCC/C=C\CCCCCCCC(=O)OCC(C[N+](C)(C)CCCS(=O)(=O)[O-])OC(=O)CCCCCCC/C=C\CCCCCCCC (stereo not shown) [DOSB] | PDI ([3]; 150 mM KBr (24 h)): 0.353; PDI ([3]; 150 mM NaI (24 h)): 0.253
DNF | Precipitated | 64.35 | 0.134 | DNF | 42.71 | 0.353 | 35.1 | 0.220 | DNF | Formed Gel | 57.45 | 0.296 | 66.95 | 0.253 | 92.53 | 0.275 | CCCCCCCCCCCCCCCC(=O)OCC(C[N+](C)(C)CCCS(=O)(=O)[O-])OC(=O)CCCCCCCCCCCCCCC (stereo not shown) [DPSB] | phase transitions observed ([4]; 150 mM NaClO4): only the high transition; phase transitions observed ([4]; 150 mM NaF): only the low transition; temperature of residual inner salt transition ([4]; 500 mM NaCl): 58 °C; inner/outer salt form (high/low transition) as function of NaCl concentration [4]: switches from the inner salt to the outer salt at 500 mM; Transition Temperatures (° C.), SB Inner Salt [4]: 60 °C; Transition Temperatures (° C.), SB Outer Salt [4]: 43 °C
DNF | 31.67 nm | 28.53 | 0.160 | DNF | 43.68 | 0.24 | 41.76 | 0.239 | DNF | 38.69 nm | 35.3 | 0.232 | 63.92 | 0.385 | 76.8 | 0.233 | CCCCCCCCCCCCCC(=O)OCC(C[N+](C)(C)CCCS(=O)(=O)[O-])OC(=O)CCCCCCCCCCCCC (stereo not shown) [DMSB] | PDI ([3]; 150 mM KBr (24 h)): 0.181; PDI ([3]; 150 mM NaI (24 h)): 0.250; liposome formation ([3]; 500 mM NaF): unable to form liposomes; phase transitions observed ([4]; 150 mM NaClO4): only the high transition; phase transitions observed ([4]; 150 mM NaF): only the low transition; inner/outer salt form (high/low transition) as function of NaCl concentration [4]: existing as the outer salt with a high transition temperature for all NaCl concentrations up to 1M; Transition Temperatures (° C.), SB Inner Salt [4]: 48 °C; Transition Temperatures (° C.), SB Outer Salt [4]: 25-30 °C; zeta-potential (surface potential) in various salt solutions [5]: most negative for ClO4^−>I^−>Br^−>Cl^−

The remaining lines, values behind:

SMILES | Liposome diameter (nm) [3, 8] | Liposome diameter (nm) ([3]; 150 mM KBr (24 h)) | Liposome diameter (nm) [3, 9] [nm] | PDI [3, 9] | Liposome diameter (nm) [3, 10] | Liposome diameter (nm) ([3]; 150 mM NaClO4 (24 h)) | PDI ([3]; 150 mM NaClO4 (24 h)) | Liposome diameter (nm) [3, 11] [nm] | PDI [3, 11] | Liposome diameter (nm) ([3]; 150 mM NaF) | Liposome diameter (nm) ([3]; 150 mM NaI (24 h)) | Liposome diameter (nm) [3, 12] [nm] | PDI [3, 12] | Liposome diameter (nm) [3, 13] [nm] | PDI [3, 13] | Liposome diameter (nm) [3, 14] [nm] | PDI [3, 14] | other results
CCCCCCCCCCCCCCCC(=O)OCC(COP(=O)(O)OCCN)OC(=O)CCCCCCCCCCCCCCC (stereo not shown) [C16 PE] |  |  |  |  |  |  |  |  |  |  |  |  |  |  |  |  |  | Transition Temperatures (° C.), PE [1]: 63.5 °C
CCCCC/C=C\C/C=C\CCCCCCCC(=O)OC[C@H](COP(=O)(O)OCCN)OC(=O)CCCCCCC/C=C\C/C=C\CCCCC [DIinPE, reference compound] |  |  |  |  |  |  |  |  |  |  |  |  |  |  |  |  |  | siRNA encapsulation efficiency [2]: decreases encapsulation efficiency
CCCCCCCCCCCCCCCCCC(=O)OCC(C[N+](C)(C)CCCS(=O)(=O)[O-])OC(=O)CCCCCCCCCCCCCCCCC (stereo not shown) [DSSB] | DNF | Precipitated | 102.3 | 0.123 | DNF | 71.96 | 0.282 | 42.45 | 0.258 | DNF | Formed Gel | 43.31 | 0.231 | 122.7 | 0.285 | 137.9 | 0.404 | phase transitions observed ([4]; 150 mM NaF, NaCl, KBr, NaI, NaClO4): both transitions for all salts except NaClO4; inner/outer salt form (high/low transition) as function of NaCl concentration [4]: never exists completely as the inner salt conformation, but does reside as the outer salt form at 500 mM; also recorded: small low transition peak in a buffer without NaCl; Transition Temperatures (° C.), SB Inner Salt [4]: 68 °C; Transition Temperatures (° C.), SB Outer Salt [4]: 57 °C
CCCCCCCCCCCC(=O)OCC(C[N+](C)(C)CCCS(=O)(=O)[O-])OC(=O)CCCCCCCCCCC (stereo not shown) [DLSB] | DNF | 74.35 nm | 54.56 | 0.276 | 1728 nm | 37.32 | 0.251 | 30.46 | 0.205 | DNF | 39.24 nm | 28.93 | 0.163 | 41.7 | 0.296 | 56.5 | 0.361 | ability to make vesicles under standard buffer conditions ([3]; 10 mM HEPES, 140 mM NaCl, pH 7.4, thin film rehydration, sonication at 80° C.): formed large, polydisperse structures; PDI ([3]; 150 mM KBr (24 h)): 0.254; PDI [3, 10]: 0.708; PDI ([3]; 150 mM NaI (24 h)): 0.215
CCCCCCCCCCCCCC(=O)OC[C@H](COP(=O)([O-])OCC[N+](C)(C)C)OC(=O)CCCCCCCCCCCCC [C14 PC] |  |  |  |  |  |  |  |  |  |  |  |  |  |  |  |  |  | Transition Temperatures (° C.), PC [1]: 24.2 °C
CCCCCCCCCCCCCCCCCC(=O)OC[C@H](COP(=O)(O)OCCN)OC(=O)CCCCCCCCCCCCCCCCC [C18 PE] |  |  |  |  |  |  |  |  |  |  |  |  |  |  |  |  |  | Transition Temperatures (° C.), PE [1]: 74.4 °C
CCCCCCCCCCCCCCCCCC(=O)OC[C@H](COP(=O)([O-])OCC[N+](C)(C)C)OC(=O)CCCCCCCCCCCCCCCCC [C18 PC] |  |  |  |  |  |  |  |  |  |  |  |  |  |  |  |  |  | Transition Temperatures (° C.), PC [1]: 55.3 °C
CCCCCCCC/C=C\CCCCCCCC(=O)OCC(C[N+](C)(C)Cc1ccc(C(=O)[O-])cc1)OC(=O)CCCCCCC/C=C\CCCCCCCC (stereo not shown) [DOBAQ] |  |  |  |  |  |  |  |  |  |  |  |  |  |  |  |  |  | ZNLP size (hydrodynamic diameter) [2]: ≤ 80 nm; Zeta potential as function of pH, effect of BLL:DOPC ratio [6]: general relationship between pH and zeta potential is maintained at all ratios tested
CCCCCCCCCCCCCC(=O)OC[C@H](COP(=O)(O)OCCN)OC(=O)CCCCCCCCCCCCC [C14 PE] |  |  |  |  |  |  |  |  |  |  |  |  |  |  |  |  |  | Transition Temperatures (° C.), PE [1]: 49.4 °C
CCCCCCCC/C=C\CCCCCCCC(=O)OC[C@H](COP(=O)([O-])OCC[N+](C)(C)C)OC(=O)CCCCCCC/C=C\CCCCCCCC [DOPC, reference compound] |  |  |  |  |  |  |  |  |  |  |  |  |  |  |  |  |  | zeta potential of liposomes [7]: become positively charged
CCCCCCCC/C=C\CCCCCCCC(=O)OCC(C[N+](C)(C)CCOP(=O)([O-])OCC)OC(=O)CCCCCCC/C=C\CCCCCCCC (stereo not shown) [DOCPe] |  |  |  |  |  |  |  |  |  |  |  |  |  |  |  |  |  | zeta potential of liposomes [7]: remain negative
CCCCCCCCCCCCCCCC(=O)OC[C@H](COP(=O)([O-])OCC[N+](C)(C)C)OC(=O)CCCCCCCCCCCCCCC [C16 PC] |  |  |  |  |  |  |  |  |  |  |  |  |  |  |  |  |  | Transition Temperatures (° C.), PC [1]: 41.7 °C
